Laboratory results published in patent US20120029187A1, “HALOALKYLSULFONANILIDE DERIVATIVE” (Nissan Chemical Industries, Ltd., priority 2009, published 2012).

Tests used:
Type in all cases: in vivo
barnyardgrass [1] = test: Test Example 1: herbicidal effects in preemergence treatment under submerged conditions; details: dose 2.52 g/a
Summary of the method: (§1)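 Submerged conditions, 4 cm water over alluvial soil. Weeds sown and 2.5-leaf rice transplanted; compound applied preemergence to water surface, doses in g per are. Greenhouse, 25 to 30° C., three weeks, then 0–5 mortality rating.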

bulrush [2] = test: as above; details: dose 2.52 g/a
Summary of the method: as §1

ducksalad [3] = test: as above; details: dose 2.52 g/a
Summary of the method: as §1

transplanted rice = test: Test Example 1: preemergence treatment under submerged conditions, effect on crop; details: dose 2.52 g/a
Summary of the method: as §1

barnyardgrass [4] = test: Test Example 2: herbicidal effects during the vegetation period under submerged conditions; details: treatment during the vegetation period under submerged conditions; dose 2.52 g/a
Summary of the method: (§2)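 Barnyardgrass, bulrush and ducksalad were co-sown in alluvial soil flooded to 4 cm and grown in a greenhouse at 25 to 30° C. At the 1- or 2-leaf stage, water-diluted emulsifiable concentrates went onto the water surface at set doses (g/a). Herbicidal effect was scored three weeks later on a graded scale.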

bulrush [5] = test: as above; details: treatment during the vegetation period under submerged conditions; dose 2.52 g/a
Summary of the method: as §2

ducksalad [6] = test: as above; details: treatment during the vegetation period under submerged conditions; dose 2.52 g/a
Summary of the method: as §2

Italian ryegrass [7] = test: Test Example 3: herbicidal effects in soil treatment; details: dose 3.2 g/a
Summary of the method: (§3)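 Seeds were sown in sterilized diluvial soil and covered with about 1.5 cm of soil. Compounds, formulated as emulsifiable concentrates and diluted with water, were sprayed evenly over the soil surface at set doses in g/a. Herbicidal effect was scored on a rating scale three weeks later.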

barnyardgrass [8] = test: as above; details: dose 3.2 g/a
Summary of the method: as §3

beadstraw [9] = test: as above; details: dose 3.2 g/a
Summary of the method: as §3

common chickweed [10] = test: as above; details: dose 3.2 g/a
Summary of the method: as §3

common lambsquater [11] = test: as above; details: dose 3.2 g/a
Summary of the method: as §3

common ragweed [12] = test: as above; details: dose 3.2 g/a
Summary of the method: as §3

giant foxtail [13] = test: as above; details: dose 3.2 g/a
Summary of the method: as §3

large crabgrass [14] = test: as above; details: dose 3.2 g/a
Summary of the method: as §3

redroot pigweed [15] = test: as above; details: dose 3.2 g/a
Summary of the method: as §3

velvetleaf [16] = test: as above; details: dose 3.2 g/a
Summary of the method: as §3

water foxtail [17] = test: as above; details: dose 3.2 g/a
Summary of the method: as §3

wild oat [18] = test: as above; details: dose 3.2 g/a
Summary of the method: as §3

Italian ryegrass [19] = test: Test Example 4: herbicidal effect in foliage treatment; details: dose 3.2 g/a
Summary of the method: (§4)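 Seeds sown in sterilized diluvial soil under ~1.5 cm soil cover and grown 14 days in a greenhouse at 25 to 30° C. Emulsifiable concentrates diluted with water were then sprayed uniformly on foliage at predetermined doses (g/a). Herbicidal effect was scored three weeks after application on a graded evaluation scale.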

barnyardgrass [20] = test: as above; details: dose 3.2 g/a
Summary of the method: as §4

beadstraw [21] = test: as above; details: dose 3.2 g/a
Summary of the method: as §4

common chickweed [22] = test: as above; details: dose 3.2 g/a
Summary of the method: as §4

common lambsquater [23] = test: as above; details: dose 3.2 g/a
Summary of the method: as §4

common ragweed [24] = test: as above; details: dose 3.2 g/a
Summary of the method: as §4

giant foxtail [25] = test: as above; details: dose 3.2 g/a
Summary of the method: as §4

large crabgrass [26] = test: as above; details: dose 3.2 g/a
Summary of the method: as §4

posumbu knotweed = test: as above; details: dose 3.2 g/a
Summary of the method: as §4

redroot pigweed [27] = test: as above; details: dose 3.2 g/a
Summary of the method: as §4

velvetleaf [28] = test: as above; details: dose 3.2 g/a
Summary of the method: as §4

water foxtail [29] = test: as above; details: dose 3.2 g/a
Summary of the method: as §4

wild oat [30] = test: as above; details: dose 3.2 g/a
Summary of the method: as §4

[31] = three weeks after the application

In the case of `CCOC(=O)N(c1ccccc1CN1CC(C)(C)OCC1=O)S(=O)(=O)C(F)(F)F` [Compound I-16], the “A: barnyardgrass, herbicidal effect (evaluation scale 0-5)” value (barnyardgrass [1]) is reported as 5 (mortality of 90% or above (nearly complete death)), the “B: bulrush, herbicidal effect (evaluation scale 0-5)” value (“B: bulrush, herbicidal effect” for short) (bulrush [2]) is reported as 5 (mortality of 90% or above (nearly complete death)) and the “C: ducksalad, herbicidal effect (evaluation scale 0-5)” value (“C: ducksalad, herbicidal effect” below) (ducksalad [3]) is reported as 5 (mortality of 90% or above (nearly complete death)). The “a: transplanted rice, effect on crop (evaluation scale 0-5)” value (transplanted rice) was 2 (mortality of at least 20% and less than 40%), the “A: barnyardgrass, herbicidal effect (evaluation scale 0-5)” value (barnyardgrass [4]) was 5 (mortality of 90% or above (nearly complete death)) and the “B: bulrush, herbicidal effect” value (bulrush [5]) was 5 (mortality of 90% or above (nearly complete death)). For the same molecule, the “C: ducksalad, herbicidal effect” value (ducksalad [6]) was 5 (mortality of 90% or above (nearly complete death)), the “H: Italian ryegrass, herbicidal effect (evaluation scale 0-5)” value (Italian ryegrass [7]) was 4 (mortality of at least 70% and less than 90%) and the “A: barnyardgrass, herbicidal effect (evaluation scale 0-5)” value (barnyardgrass [8]) was 5 (mortality of 90% or above (nearly complete death)). The “O: beadstraw, herbicidal effect (evaluation scale 0-5)” value (beadstraw [9]) was 0 (mortality of less than 5% (almost ineffective)), the “N: common chickweed, herbicidal effect (evaluation scale 0-5)” value (common chickweed [10]) was 5 (mortality of 90% or above (nearly complete death)) and the “L: common lambsquater, herbicidal effect (evaluation scale 0-5)” value (common lambsquater [11]) was 3 (mortality of at least 40% and less than 70%). The “J: common ragweed, herbicidal effect (evaluation scale 0-5)” value (common ragweed [12]) was 5 (mortality of 90% or above (nearly complete death)), the “E: giant foxtail, herbicidal effect (evaluation scale 0-5)” value (giant foxtail [13]) was 5 (mortality of 90% or above (nearly complete death)) and the “D: large crabgrass, herbicidal effect (evaluation scale 0-5)” value (large crabgrass [14]) was 5 (mortality of 90% or above (nearly complete death)). For the same molecule, the “K: redroot pigweed, herbicidal effect (evaluation scale 0-5)” value (redroot pigweed [15]) was 5 (mortality of 90% or above (nearly complete death)), the “I: velvetleaf, herbicidal effect (evaluation scale 0-5)” value (velvetleaf [16]) was 5 (mortality of 90% or above (nearly complete death)) and the “G: water foxtail, herbicidal effect (evaluation scale 0-5)” value (water foxtail [17]) was 5 (mortality of 90% or above (nearly complete death)). The “F: wild oat, herbicidal effect (evaluation scale 0-5)” value (wild oat [18]) was 3 (mortality of at least 40% and less than 70%), the “H: Italian ryegrass, herbicidal effect” value (Italian ryegrass [19]; three weeks after application) was 4 (mortality of at least 70% and less than 90%) and the “A: barnyardgrass, herbicidal effect” value (barnyardgrass [20]; three weeks after application) was 5 (mortality of 90% or above (nearly complete death)). The “O: beadstraw, herbicidal effect” value (beadstraw [21]; three weeks after application) was 3 (mortality of at least 40% and less than 70%), the “N: common chickweed, herbicidal effect” value (common chickweed [22]; three weeks after application) was 5 (mortality of 90% or above (nearly complete death)) and the “L: common lambsquater, herbicidal effect” value (common lambsquater [23]; three weeks after application) was 2 (mortality of at least 20% and less than 40%). For the same molecule, the “J: common ragweed, herbicidal effect” value (common ragweed [24]; three weeks after application) was 5 (mortality of 90% or above (nearly complete death)), the “E: giant foxtail, herbicidal effect” value (giant foxtail [25]; three weeks after application) was 4 (mortality of at least 70% and less than 90%) and the “D: large crabgrass, herbicidal effect” value (large crabgrass [26]; three weeks after application) was 4 (mortality of at least 70% and less than 90%). For the same molecule, the “M: posumbu knotweed, herbicidal effect” value (posumbu knotweed; three weeks after application) was 3 (mortality of at least 40% and less than 70%), the “K: redroot pigweed, herbicidal effect” value (redroot pigweed [27]; three weeks after application) was 2 (mortality of at least 20% and less than 40%) and the “I: velvetleaf, herbicidal effect” value (velvetleaf [28]; three weeks after application) was 5 (mortality of 90% or above (nearly complete death)). The “G: water foxtail, herbicidal effect” value (water foxtail [29]; three weeks after application) was 5 (mortality of 90% or above (nearly complete death)) and the “F: wild oat, herbicidal effect” value (wild oat [30]; three weeks after application) was 3 (mortality of at least 40% and less than 70%).

In the case of `CCOC(=O)N(c1ccccc1CN1CSCCC1=O)S(=O)(=O)C(F)(F)F` [II-79], the “A: barnyardgrass, herbicidal effect (evaluation scale 0-5)” value (barnyardgrass [1]) is reported as 5 (mortality of 90% or above (nearly complete death)), the “B: bulrush, herbicidal effect” value (bulrush [2]) is reported as 5 (mortality of 90% or above (nearly complete death)) and the “C: ducksalad, herbicidal effect” value (ducksalad [3]) is reported as 5 (mortality of 90% or above (nearly complete death)). For the same molecule, the “a: transplanted rice, effect on crop (evaluation scale 0-5)” value (transplanted rice) was 0 (mortality of less than 5% (almost ineffective)), the “A: barnyardgrass, herbicidal effect (evaluation scale 0-5)” value (barnyardgrass [4]) was 5 (mortality of 90% or above (nearly complete death)) and the “B: bulrush, herbicidal effect” value (bulrush [5]) was 5 (mortality of 90% or above (nearly complete death)). For the same molecule, the “C: ducksalad, herbicidal effect” value (ducksalad [6]) was 5 (mortality of 90% or above (nearly complete death)), the “herbicidal effect, H: Italian ryegrass” value (Italian ryegrass [7]) was 3 (mortality of at least 40% and less than 70%) and the “herbicidal effect, A: barnyardgrass” value (barnyardgrass [8]) was 5 (mortality of 90% or above (nearly complete death)). The “herbicidal effect, O: beadstraw” value (beadstraw [9]) was 0 (mortality of less than 5% (almost ineffective)), the “herbicidal effect, N: common chickweed” value (common chickweed [10]) was 4 (mortality of at least 70% and less than 90%) and the “herbicidal effect, L: common lambsquater” value (common lambsquater [11]) was 3 (mortality of at least 40% and less than 70%). The “herbicidal effect, J: common ragweed” value (common ragweed [12]) was 4 (mortality of at least 70% and less than 90%), the “herbicidal effect, E: giant foxtail” value (giant foxtail [13]) was 5 (mortality of 90% or above (nearly complete death)) and the “herbicidal effect, D: large crabgrass” value (large crabgrass [14]) was 5 (mortality of 90% or above (nearly complete death)). For the same molecule, the “herbicidal effect, K: redroot pigweed” value (redroot pigweed [15]) was 2 (mortality of at least 20% and less than 40%), the “herbicidal effect, I: velvetleaf” value (velvetleaf [16]) was 5 (mortality of 90% or above (nearly complete death)) and the “herbicidal effect, G: water foxtail” value (water foxtail [17]) was 5 (mortality of 90% or above (nearly complete death)). The “herbicidal effect, F: wild oat” value (wild oat [18]) was 0 (mortality of less than 5% (almost ineffective)), the “H: Italian ryegrass, herbicidal effect” value (Italian ryegrass [19]; [31]) was 3 (mortality of at least 40% and less than 70%) and the “A: barnyardgrass, herbicidal effect” value (barnyardgrass [20]; [31]) was 5 (mortality of 90% or above (nearly complete death)). The “O: beadstraw, herbicidal effect” value (beadstraw [21]; [31]) was 4 (mortality of at least 70% and less than 90%), the “N: common chickweed, herbicidal effect” value (common chickweed [22]; [31]) was 4 (mortality of at least 70% and less than 90%) and the “L: common lambsquater, herbicidal effect” value (common lambsquater [23]; [31]) was 3 (mortality of at least 40% and less than 70%). For the same molecule, the “J: common ragweed, herbicidal effect” value (common ragweed [24]; [31]) was 4 (mortality of at least 70% and less than 90%), the “E: giant foxtail, herbicidal effect” value (giant foxtail [25]; [31]) was 4 (mortality of at least 70% and less than 90%) and the “D: large crabgrass, herbicidal effect” value (large crabgrass [26]; [31]) was 4 (mortality of at least 70% and less than 90%). For the same molecule, the “M: posumbu knotweed, herbicidal effect” value (posumbu knotweed; [31]) was 4 (mortality of at least 70% and less than 90%), the “K: redroot pigweed, herbicidal effect” value (redroot pigweed [27]; [31]) was 1 (mortality of at least 5% and less than 20%) and the “I: velvetleaf, herbicidal effect” value (velvetleaf [28]; [31]) was 4 (mortality of at least 70% and less than 90%). For the same molecule, the “G: water foxtail, herbicidal effect” value (water foxtail [29]; [31]) was 5 (mortality of 90% or above (nearly complete death)) and the “F: wild oat, herbicidal effect” value (wild oat [30]; [31]) was 0 (mortality of less than 5% (almost ineffective)).
